Assay in all cases: NCI tumour cell line growth inhibition, 48 h
Experiment [1] deals with A498 renal.
Experiment [2] relates to COLO 205 colon.
In experiment [3] the test system is HCC-2998 colon.
Experiment [4] concerns HCT-116 colon.
Experiment [5] deals with HT29 colon.
In experiment [6] the test system is K-562 leukemia.
Experiment [7] concerns SF-295 CNS.
Experiment [8] concerns SK-MEL-28 melanoma.
The test system of experiment [9] is U251 CNS.
In experiment [10] the test system is UACC-62 melanoma.

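Briefly, cells in 96-well plates were exposed to five compound concentrations for 48 h, and endpoints were estimated by linear interpolation. The concentration for 50% growth inhibition is given as GI50. TGI: total growth inhibition.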

As to `Cc1cccc2c(N)c3cccc(C(=O)NCC[N+](C)(C)Cc4ccc([N+](=O)[O-])s4)c3nc12`, the TGI in [1] is 23.6 µM; in experiment [2] it was 21.4 µM; in [3], 25.2 µM; in experiment [4], more than 100 µM; in experiment [5], 23.6 µM; in experiment [6], 27.9 µM. The TGI is more than 100 µM in experiment [7], more than 100 µM in [8], more than 100 µM in [9] and more than 49.1 µM in experiment [10].
Turning to `O=C(COc1ccc(OCC(=O)N2C(=O)CC(=O)N(c3ccc(Cl)cc3)C2=S)cc1)N1C(=O)CC(=O)N(c2ccc(Cl)cc2)C1=S`, the TGI in experiment [1] was more than 100 µM; in experiment [2] it was 38.5 µM; in experiment [3], more than 100 µM; in experiment [4], 25.2 µM; in experiment [5], more than 100 µM; in [6], more than 100 µM. Moreover, the TGI was more than 100 µM in [7], more than 100 µM in [8], more than 100 µM in [9] and 60.5 µM in [10].
With `COc1ccc(C#Cn2nnc3ccccc32)cc1`, the TGI in [1] is more than 100 µM; in experiment [2], more than 100 µM; in experiment [3], 82 µM; in [4], more than 100 µM; in [5], more than 100 µM; in experiment [6], more than 100 µM. The TGI in [7], in experiment [8], in experiment [9] and in experiment [10] was more than 100 µM in each case.
Turning to `CCOC(=O)/C(C(N)=O)=C(\O)C(=O)/C(Br)=C(\O)c1ccccc1`, the TGI in [1] is more than 100 µM; in experiment [2], 33.4 µM; in [3], 36.6 µM; in [4], 32 µM; in experiment [5], more than 70.8 µM; in experiment [6], 31.2 µM. Moreover, the TGI is more than 100 µM in [7], 34.9 µM in [8], 35.3 µM in [9] and 33.3 µM in [10].
Take `CCOC(=O)C1CC(C(=O)c2ccccc2)N2c3ccccc3-c3ccccc3C12` (configuration not stated): the TGI in experiment [1], in [2], in experiment [3], in [4], in [5] and in [6] was more than 100 µM each time. In addition, the TGI in experiment [7], in experiment [8], in experiment [9] and in experiment [10] was more than 100 µM throughout.
As for `C#CC[C@@]12CC(=O)C[C@@H]1CCC1(C2)OCCO1` (tested in a mixture with another compound), the TGI in [1], in experiment [2], in experiment [3], in [4], in experiment [5] and in [6] was more than 100 µM each time. For the same compound, the TGI in [7], in experiment [8], in [9] and in experiment [10] was more than 100 µM throughout.
With `Clc1sc(Cl)c2c1[C@@H](Cl)C[C@@H]2Cl`, the TGI in [1], in [2], in experiment [3], in experiment [4], in [5] and in experiment [6] was more than 100 µM in each case. Also, the TGI in experiment [7], in [8], in [9] and in experiment [10] was more than 100 µM each time.
For `COC(=O)C1CC2(C)C=CC1N(C(=O)OCc1ccccc1)C2` (configuration not stated), the TGI in experiment [1], in [2], in [3], in experiment [4], in experiment [5] and in [6] was more than 100 µM throughout. In addition, the TGI in [7], in [8], in experiment [9] and in [10] was more than 100 µM each time.
On to `O=C(Nc1sccc1S(=O)(=O)c1ccc(Cl)cc1)c1ccc(F)cc1F`, for which the TGI was 51.5 µM in experiment [1]; more than 100 µM in [2]; more than 100 µM in experiment [3]; more than 100 µM in [4]; more than 100 µM in experiment [5]; 38.6 µM in experiment [6]. Further, the TGI in experiment [7] is 65.3 µM; in experiment [8], more than 100 µM; in experiment [9] it was 45 µM; in [10], 86.8 µM.
In the case of `O=P1(N2CCOCC2)OCCO1`, the TGI in experiment [1], in [2], in experiment [3], in [4], in [5] and in experiment [6] was more than 100 µM throughout. In addition, the TGI in experiment [7], in experiment [8], in experiment [9] and in [10] was more than 100 µM each time.
Take `CCn1c(=O)c2nc(SC)sc2n(-c2ccc(C)cc2)c1=O`: the GI50 in [1] was 28.2 µM; in [10] it was 41.2 µM. The TGI in experiment [1], in experiment [2], in [3], in experiment [4], in experiment [5] and in [6] was more than 100 µM throughout. For the same compound, the TGI in experiment [7], in experiment [8], in [9] and in [10] was more than 100 µM throughout.
Take `O=C(O)CCC(=O)OCN1C(=O)C2C3C=CC(C2C1=O)C1C2C(=O)N(COC(=O)CCC(=O)O)C(=O)C2C31` (configuration not stated): the TGI in experiment [1] was more than 100 µM; in experiment [2], more than 100 µM; in experiment [3], more than 100 µM; in experiment [4] it was more than 54.3 µM; in experiment [5], more than 100 µM; in [6] it was more than 100 µM. The TGI in experiment [7], in experiment [8], in experiment [9] and in [10] was more than 100 µM in each case.
`C/C=C(\C)C(=O)OC1CC(OC(C)=O)C2(C(=O)OC)COC3C2C1(C)C1C2(C(=O)OC)OCC1(C3O)C1(O)C3CC(C4(O)C=COC4O3)C1(C)O2` (configuration not stated): the TGI in experiment [1], in [2], in [3], in [4], in experiment [5] and in experiment [6] was more than 100 µM in each case. For the same compound, the TGI in [7], in [8], in experiment [9] and in experiment [10] was more than 100 µM throughout.
For the compound `Cn1cccc1-c1ccc(-c2ccc(CO)[se]2)[se]1`, the TGI is more than 100 µM in [1]; more than 86.4 µM in [2]; more than 68.4 µM in [3]; more than 100 µM in experiment [4]; more than 100 µM in [5]; more than 100 µM in [6]. The TGI is more than 95.8 µM in experiment [7], more than 100 µM in experiment [8], more than 100 µM in experiment [9] and more than 100 µM in experiment [10].
On to `COC(C/C(=C/CO[Si](C(C)C)(C(C)C)C(C)C)C(=O)N(COCC[Si](C)(C)C)c1ccccc1I)OC`, for which the TGI in [1] is more than 100 µM; in experiment [2] it was more than 100 µM; in experiment [3] it was more than 100 µM; in experiment [4] it was 46.2 µM; in experiment [5], more than 100 µM; in [6], more than 100 µM. The TGI is 17.4 µM in experiment [7], 50 µM in experiment [8], 94.8 µM in [9] and 50.7 µM in experiment [10].
For `Cc1cn(C2CCC(CO)(CF)O2)c(=O)[nH]c1=O` (configuration not stated), the TGI in experiment [1], in experiment [2], in [3], in [4], in experiment [5] and in experiment [6] was more than 100 µM in each case. The TGI in experiment [7], in experiment [8], in [9] and in experiment [10] was more than 100 µM in each case.
As to `CCCC[C@@H](C)/C=C1\CN2CCC[C@H]2[C@@](C)(OCc2ccccc2)[C@@H]1O`, the TGI in experiment [1], in [2], in experiment [3], in [4], in experiment [5] and in experiment [6] was more than 50 µM each time. Moreover, the TGI in experiment [7], in [8], in experiment [9] and in experiment [10] was more than 50 µM in each case.
Regarding `N#Cc1c(-c2ccc(Cl)cc2)cc(-c2ccc(Nc3ccnc4cc(Cl)ccc34)cc2)[nH]c1=O`, the TGI in experiment [1] was more than 88.9 µM; in experiment [2], more than 100 µM; in experiment [3] it was more than 100 µM; in experiment [4] it was more than 100 µM; in [5], more than 100 µM; in experiment [6], more than 100 µM. Moreover, the TGI in [7] was more than 62.1 µM; in experiment [8], more than 100 µM; in experiment [9], more than 61 µM; in [10], more than 100 µM.
With `COc1cc2cc(C(=O)N3CC(COS(C)(=O)=O)c4ccc(NC(=O)OCc5ccccc5)cc43)[nH]c2c(OC)c1OC` (configuration not stated), the TGI in experiment [1], in [2], in experiment [3], in experiment [4], in experiment [5] and in experiment [6] was more than 100 µM each time. Besides, the TGI in [7], in experiment [8], in experiment [9] and in experiment [10] was more than 100 µM each time.
In the case of `O=C(CCN1CCOCC1)/C(=C/c1ccccc1)c1ccccc1`, the TGI in [1] amounted to 23.3 µM; in experiment [2], 14.3 µM; in [3], 28.3 µM; in experiment [4], 12.3 µM; in experiment [5] it was 17.6 µM; in [6], 4.24 µM. Also, the TGI was found to be 25.7 µM in [7], 20.3 µM in [8], 12.9 µM in experiment [9] and 7.52 µM in [10].
For the compound `COc1cccc(N=N/C(=N/NC(=O)c2ccc(C)cc2)c2ccc(N(CCC#N)CCC#N)cc2OC)c1`, the TGI in experiment [1] is more than 100 µM; in [2], more than 100 µM; in [3], more than 100 µM; in experiment [4], more than 100 µM; in experiment [5], 35.5 µM; in experiment [6], more than 100 µM. For the same compound, the TGI in experiment [7], in [8], in [9] and in experiment [10] was more than 100 µM each time.
On to `Nc1ccc(-c2nc3ccccc3s2)cc1Cl`, for which the TGI in experiment [1] is 4.17 µM; in experiment [2], more than 100 µM; in [3], more than 100 µM; in [4] it was more than 100 µM; in experiment [5], more than 100 µM; in [6], more than 100 µM. Besides, the TGI in experiment [7], in experiment [8], in experiment [9] and in experiment [10] was more than 100 µM throughout.

Source of the values: PubChem BioAssay (NCI).
